In US20230068020A1, “MACROLIDE COMPOUND AND ITS USE OF TREATMENT CHRONIC RESPIRATORY DISEASE” (priority 2020, published 2023):

Tests used:
THP-1 cell = assay: Differentiation of monocyte to macrophage in THP-1 cell line; assay type: cell-based; details: in words
Experimental: The THP-1 cell line was purchased from ATCC (American Type Culture Collection, Manassas, Va.). Cells were maintained in growth medium (RPMI-1640) with supplemented with 10% heat inactivated bovine serum, 100× Glutamax medium and 0.05 mM β-Mercaptoethanol at 37° C. under 5% CO2. Compounds were dissolved in 0.1% DMSO. Erythromycin was used as a positive control.
For the assessment of the effect of compounds of the present invention on differentiation of monocyte to macrophage in THP-1 cell line, cells were collected and centrifuged at 900 rpm for 4 minutes. The cell density was adjusted to 2.5×10^5/mL. cell suspension of 400 μL was added to each well of 48-well plate following the plate layout. PMA 1 mg, a compound can induce monocyte differentiation, was dissolved in 10 mL DMSO to form 100 μg/mL solution and aliquote it into 1 mL per vial. 1 mL solution can be further aliquoted into 10 μL per vial and stored the aliquots at −20° C. Make 10-fold dilution of PMA with DMSO and then 500-fold dilution with complete medium. 50 μL solution were then added to each well of 48-well plate following the plate layout. Erythromycin and compounds of examples at stock concentration of 10 mM was serially diluted at 10-fold in DMSO. 50 μL solution was added to each well of 48-well plate following the plate layout. After 96 hrs incubation at 37° C., 5% CO2, the plate was washed with DPBS for three times to remove non-adherent cells for three times. Complete medium 180 μL and alarmar blue 20 μL was added to each well. The fluorescent intensity was read at excitation 530 nm and emission 590 nm using PerkinElmer Victor3 after 3 hours plate incubation.
The differentiation activity of compounds of Examples is compared to that of 100 μM erythromycin and the results are shown in FIG. 1 and Table 3.

[1] = test system: smoke induced COPD mice model; assay: Smoke induced COPD mice model; assay type: in vivo, C57BL/6 J mice
Experimental: The commercial non-filtered cigarettes containing 11 mg tar and 0.9 mg nicotine per cigarette were used in this study. Eight-week-old male C57BL/6 J mice (purchased from Shanghai Xipuer Yibikai animal Co) were divided into four groups as follows: Group 1 was the control group(NS6m), Group 2 was the animal model CS group(CS6m), Groups 3 was CS+Compound A 100 mpk group(LY100), Group 4 was CS+erythromycin group(EM100). Mice were placed in a Plexiglass chamber covered by a disposable filter. The animals received CS of 5 cigarettes/time, carried out twice per day and 5 days a week for 24 weeks. Mainstream CS was generated by an exposure system in which combustion of the cigarette was drawn into the mouse chambers via a peristaltic pump. In group 3 and 4, mice were orally administrated with Compound A (100 mg/kg) twice per day from the 12th week to 24th week. One week after the last CS exposure, animals were sacrificed by intraperitoneal injection of 10% chloral hydrate for the plasma, bronchoalveolar lavage fluid (BALF) and lung tissues collection.
The lung tissues were collected and inflated with 4% paraformaldehyde at a pressure of 25 cmH2O, fixed for 24 h in formalin, embedded with paraffin, sectioned in the sagittal plane, and stained with hematoxylin and eosin (H & E). Alveolus enlargement was quantified by measurement of the mean chord length of alveoli with Analysis software Image J (see FIGS. 5 & 6).
For the bronchoalveolar lavage fluid collection, lungs were lavaged with 1 ml of saline, and the resulting BALF was centrifuged at 3000 g for 15 minutes. Cells were washed three times and then analyzed on a ThermoFisher Countess II cytometer.

## CC[C@H]1OC(=O)[C@H](C)[C@@H](O[C@H]2C[C@@](C)(OC)[C@@H](O)[C@H](C)O2)[C@H](C)[C@@H](O[C@@H]2O[C@H](C)C[C@H](N(C)C)[C@H]2O)[C@](C)(O)C[C@@H](C)C(=O)[C@H](C)[C@@H](O)[C@]1(C)O [Erythromycin, reference compound]
THP-1 cell
  effect on THP-1 cell differentiation: promotional effect on THP-1 cell differentiation in a dose dependent manner
[1]; 100 mg/kg orally twice per day, 12th to 24th week, vs CS group
  inflammatory cell infiltration and enlargement of alveolus (lung histology): significantly attenuated
[1]; 100 mg/kg orally twice per day, compared to the smoking group
  total cell count and number of macrophages and neutrophils in BALF: significantly lower
[1]; oral administration of 100 mg/kg, 24 weeks smoke exposure
  airway resistance and total lung capacity: reduced two parameters and partially recovered lung function
